Experimental data taken from ChEMBL document CHEMBL1201862, “PubChem BioAssay data set” (2004).
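Growth conditions: 96-well plates. Treatment: test compound, 48 hours, 5 concentrations. Analysis: linear interpolation between bracketing concentrations; unreached endpoints set to highest concentration. GI50 marks 50% less growth.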 Active and inactive are the calls of the source. Cut-off read from the data, not from the text of the source: active = GI50 up to about 1.1 µM and inactive = higher.

Assays:
Assay in all cases: NCI tumour cell line growth inhibition, 48 h
HCC 2998 = test system: HCC 2998
UACC-62 = test system: UACC-62
HOP-62 = test system: HOP-62
OVCAR-8 = test system: OVCAR-8
KM-20L2 = test system: KM-20L2
OVCAR-4 = test system: OVCAR-4
DMS-273 = test system: DMS-273
A498 = test system: A498
UACC-257 = test system: UACC-257
COLO 205 = test system: COLO 205
SW-620 = test system: SW-620
HT-29 = test system: HT-29
CCRF-CEM = test system: CCRF-CEM
SF-295 = test system: SF-295
UO-31 = test system: UO-31
CAKI-1 = test system: CAKI-1
SF-539 = test system: SF-539
RPMI-8226 = test system: RPMI-8226
TK-10 = test system: TK-10
HL-60 = test system: HL-60
U-251 = test system: U-251
DLD-1 = test system: DLD-1
SNB-19 = test system: SNB-19
RXF 393 = test system: RXF 393
MOLT-4 = test system: MOLT-4
IGROV-1 = test system: IGROV-1
OVCAR-5 = test system: OVCAR-5
NCI-H23 = test system: NCI-H23
DMS-114 = test system: DMS-114
Malme-3M = test system: Malme-3M
HOP-92 = test system: HOP-92
SK-OV-3 = test system: SK-OV-3
K562 = test system: K562
OVCAR-3 = test system: OVCAR-3
M19-MEL = test system: M19-MEL
NCI-H460 = test system: NCI-H460
A549 = test system: A549
NCI-H522 = test system: NCI-H522
HCT-116 = test system: HCT-116
NCI-H226 = test system: NCI-H226
LOX IMVI = test system: LOX IMVI
SF-268 = test system: SF-268
SNB-78 = test system: SNB-78
HOP-18 = test system: HOP-18
KM12 = test system: KM12
EKVX = test system: EKVX
M14 = test system: M14
SNB-75 = test system: SNB-75
HCT-15 = test system: HCT-15
SN12C = test system: SN12C
SK-MEL-5 = test system: SK-MEL-5
786-0 = test system: 786-0
SR = test system: SR
SK-MEL-2 = test system: SK-MEL-2
LXFL 529 = test system: LXFL 529
ACHN = test system: ACHN
SK-MEL-28 = test system: SK-MEL-28

In the case of Nc1cccc2c1-c1c(cccc1[N+](=O)[O-])C2=O, the GI50 (HCC 2998) is reported as > 100 µM (inactive), the GI50 (UACC-62) is reported as > 100 µM (inactive) and the GI50 (HOP-62) is reported as > 100 µM (inactive). The GI50 (OVCAR-8) was > 100 µM (inactive), the GI50 (KM-20L2) was > 100 µM (inactive) and the GI50 (OVCAR-4) was > 100 µM (inactive). The GI50 (DMS-273) was > 100 µM (inactive), the GI50 (A498) was > 100 µM (inactive) and the GI50 (UACC-257) was > 100 µM (inactive). For the same compound, the GI50 (COLO 205) was > 100 µM (inactive), the GI50 (SW-620) was > 100 µM (inactive) and the GI50 (HT-29) was > 100 µM (inactive). For the same compound, the GI50 (CCRF-CEM) was > 100 µM (inactive), the GI50 (SF-295) was > 100 µM (inactive) and the GI50 (UO-31) was 0.108 µM (active). The GI50 (CAKI-1) was > 100 µM (inactive), the GI50 (SF-539) was > 100 µM (inactive) and the GI50 (RPMI-8226) was > 100 µM (inactive). For the same compound, the GI50 (TK-10) was > 100 µM (inactive), the GI50 (HL-60) was > 100 µM (inactive) and the GI50 (U-251) was > 100 µM (inactive). For the same compound, the GI50 (DLD-1) was > 100 µM (inactive), the GI50 (SNB-19) was > 100 µM (inactive) and the GI50 (RXF 393) was > 100 µM (inactive). For the same compound, the GI50 (MOLT-4) was > 100 µM (inactive), the GI50 (IGROV-1) was > 100 µM (inactive) and the GI50 (OVCAR-5) was > 100 µM (inactive). For the same compound, the GI50 (NCI-H23) was > 100 µM (inactive), the GI50 (DMS-114) was > 100 µM (inactive) and the GI50 (Malme-3M) was > 100 µM (inactive). The GI50 (HOP-92) was > 100 µM (inactive), the GI50 (SK-OV-3) was > 100 µM (inactive) and the GI50 (K562) was > 100 µM (inactive). For the same compound, the GI50 (OVCAR-3) was > 100 µM (inactive), the GI50 (M19-MEL) was > 100 µM (inactive) and the GI50 (NCI-H460) was > 100 µM (inactive). The GI50 (A549) was > 100 µM (inactive), the GI50 (NCI-H522) was > 100 µM (inactive) and the GI50 (HCT-116) was > 100 µM (inactive). For the same compound, the GI50 (NCI-H226) was > 100 µM (inactive), the GI50 (LOX IMVI) was > 100 µM (inactive) and the GI50 (SF-268) was > 100 µM (inactive). The GI50 (SNB-78) was > 100 µM (inactive), the GI50 (HOP-18) was > 100 µM (inactive) and the GI50 (KM12) was > 100 µM (inactive). The GI50 (EKVX) was > 100 µM (inactive), the GI50 (M14) was > 100 µM (inactive) and the GI50 (SNB-75) was > 100 µM (inactive). For the same compound, the GI50 (HCT-15) was over 100 µM, the GI50 (SN12C) was > 100 µM (inactive) and the GI50 (SK-MEL-5) was > 100 µM (inactive). For the same compound, the GI50 (786-0) was > 100 µM (inactive) and the GI50 (SR) was > 100 µM (inactive).
C1CN2CCO[SiH](O1)OCC2 was tested, and the GI50 (HCC 2998) was > 100 µM (inactive), the GI50 (UACC-62) was > 100 µM (inactive) and the GI50 (OVCAR-8) was > 100 µM (inactive). The GI50 (KM-20L2) was > 100 µM (inactive), the GI50 (DMS-273) was > 100 µM (inactive) and the GI50 (SK-MEL-2) was > 100 µM (inactive). The GI50 (A498) was > 100 µM (inactive), the GI50 (UACC-257) was > 100 µM (inactive) and the GI50 (COLO 205) was > 100 µM (inactive). The GI50 (LXFL 529) was > 100 µM (inactive), the GI50 (SW-620) was > 100 µM (inactive) and the GI50 (HT-29) was > 100 µM (inactive). For the same compound, the GI50 (CCRF-CEM) was > 100 µM (inactive), the GI50 (SF-295) was > 100 µM (inactive) and the GI50 (UO-31) was > 100 µM (inactive). The GI50 (CAKI-1) was > 100 µM (inactive), the GI50 (SF-539) was > 100 µM (inactive) and the GI50 (RPMI-8226) was > 100 µM (inactive). For the same compound, the GI50 (TK-10) was > 100 µM (inactive), the GI50 (HL-60) was > 100 µM (inactive) and the GI50 (U-251) was > 100 µM (inactive). The GI50 (DLD-1) was > 100 µM (inactive), the GI50 (SNB-19) was > 100 µM (inactive) and the GI50 (RXF 393) was > 100 µM (inactive). For the same compound, the GI50 (MOLT-4) was > 100 µM (inactive), the GI50 (IGROV-1) was > 100 µM (inactive) and the GI50 (NCI-H23) was > 100 µM (inactive). The GI50 (DMS-114) was > 100 µM (inactive), the GI50 (Malme-3M) was > 100 µM (inactive) and the GI50 (SK-OV-3) was > 100 µM (inactive). The GI50 (K562) was > 100 µM (inactive), the GI50 (OVCAR-3) was > 100 µM (inactive) and the GI50 (M19-MEL) was > 100 µM (inactive). For the same compound, the GI50 (NCI-H460) was > 100 µM (inactive), the GI50 (A549) was > 100 µM (inactive) and the GI50 (NCI-H522) was > 100 µM (inactive). For the same compound, the GI50 (HCT-116) was > 100 µM (inactive), the GI50 (NCI-H226) was > 100 µM (inactive) and the GI50 (SF-268) was > 100 µM (inactive). The GI50 (SNB-78) was > 100 µM (inactive), the GI50 (HOP-18) was > 100 µM (inactive) and the GI50 (KM12) was > 100 µM (inactive). For the same compound, the GI50 (EKVX) was > 100 µM (inactive), the GI50 (ACHN) was > 100 µM (inactive) and the GI50 (SK-MEL-28) was > 100 µM (inactive). For the same compound, the GI50 (SNB-75) was > 100 µM (inactive), the GI50 (SN12C) was > 100 µM (inactive) and the GI50 (SK-MEL-5) was > 100 µM (inactive). For the same compound, the GI50 (786-0) was > 100 µM (inactive) and the GI50 (SR) was > 100 µM (inactive).
For Cc1cc(O)nc(NN2C(Cl)C(=O)C2c2ccco2)n1 (stereo unspecified), the GI50 (HCC 2998) was 60 µM (inactive), the GI50 (UACC-62) was 26.5 µM (inactive) and the GI50 (HOP-62) was 32.6 µM (inactive). The GI50 (OVCAR-8) was 46.5 µM (inactive), the GI50 (KM-20L2) was 39.4 µM (inactive) and the GI50 (OVCAR-4) was 19.7 µM (inactive). For the same compound, the GI50 (DMS-273) was 33.7 µM (inactive), the GI50 (SK-MEL-2) was 27.6 µM (inactive) and the GI50 (UACC-257) was 48.9 µM (inactive). The GI50 (COLO 205) was 78.2 µM (inactive), the GI50 (LXFL 529) was 29.3 µM (inactive) and the GI50 (SW-620) was 64.9 µM (inactive). For the same compound, the GI50 (HT-29) was 34 µM (inactive), the GI50 (CCRF-CEM) was 8.2 µM (inactive) and the GI50 (UO-31) was 23.1 µM (inactive). For the same compound, the GI50 (SF-539) was 22.6 µM (inactive), the GI50 (RPMI-8226) was 16.3 µM (inactive) and the GI50 (TK-10) was 61.2 µM (inactive). The GI50 (HL-60) was 15.3 µM (inactive), the GI50 (U-251) was 30.5 µM (inactive) and the GI50 (SNB-19) was 32 µM (inactive). The GI50 (RXF 393) was 13 µM (inactive), the GI50 (MOLT-4) was 21.8 µM (inactive) and the GI50 (IGROV-1) was 27 µM (inactive). For the same compound, the GI50 (OVCAR-5) was > 100 µM (inactive), the GI50 (NCI-H23) was 28 µM (inactive) and the GI50 (DMS-114) was 34.4 µM (inactive). For the same compound, the GI50 (HOP-92) was 25.1 µM (inactive), the GI50 (K562) was 29.7 µM (inactive) and the GI50 (OVCAR-3) was 15.2 µM (inactive). The GI50 (M19-MEL) was 39.5 µM (inactive), the GI50 (NCI-H460) was 24.6 µM (inactive) and the GI50 (A549) was 77.6 µM (inactive). For the same compound, the GI50 (HCT-116) was 43.4 µM (inactive), the GI50 (LOX IMVI) was 23.3 µM (inactive) and the GI50 (SF-268) was 29.4 µM (inactive). For the same compound, the GI50 (SNB-78) was 25.7 µM (inactive), the GI50 (HOP-18) was 21.1 µM (inactive) and the GI50 (KM12) was 44.6 µM (inactive). For the same compound, the GI50 (EKVX) was 87.5 µM (inactive), the GI50 (ACHN) was 28.2 µM (inactive) and the GI50 (SK-MEL-28) was > 10 µM (inactive). The GI50 (M14) was 33.8 µM (inactive), the GI50 (SNB-75) was 13.7 µM (inactive) and the GI50 (HCT-15) was 31.6 µM. The GI50 (SN12C) was 24.2 µM (inactive), the GI50 (SK-MEL-5) was 41.7 µM (inactive) and the GI50 (SR) was 28.4 µM (inactive).
